From patent publication US11752158B2 (priority 2007, dated 2023)
Values joined by “and” are separate entries in the source; they are usually repeats but may differ in a detail not shown here. Equal values may be shown once. “Also recorded” adds a separate entry of the source.

Experiments:
[1] = tested on: patients with advanced prostate cancer; conditions: human, in vivo, po
Description: The efficacy and safety of an oral preparation of 25-hydroxyvitamin D2 is examined in a 3-month study of patients with advanced prostate cancer being treated with high-dose calcitriol once per week. For this study, 25-hydroxyvitamin D2 was formulated in soft-gelatin capsules. Forty patients with advanced prostate cancer undergoing treatment with high-dose calcitriol and Docetaxel were divided into two equal groups. Along with weekly calcitriol doses, group #1 receives between 2-20 mcg 25-hydroxyvitamin D2, while group #2 receives placebo. Prior to enrolling, all subjects provide two fasting morning blood samples, separated by at least one week, to establish pre-treatment baseline values of serum calcium, plasma intact PTH, and serum 25-hydroxyvitamin D. Additional fasting blood samples and 24-hour urine collections are obtained from each subject 24 h following the administration of the weekly administration of calcitriol for determination of serum calcium and serum 25-hydroxyvitamin D. Throughout the study, all subjects adhere to a daily intake of approximately 1,000 to 1,500 mg of elemental calcium (from self-selected diets and calcium supplements, as needed) under the ongoing guidance of a dietician. At the conclusion of the study, the laboratory data are analyzed by treatment group and by test formulation after appropriate correction for baseline values.

[2] = Serum metabolites of 25-hydroxyvitamin D3 and 25-hydroxyvitamin D2 (Example 1, FIG. 4 and 5); type: in vivo, rat
Method: (§1) The concentration of total 25-hydroxyvitamin D at 120 hours post initial dose was determined in serum samples using a high-performance liquid chromatographic method using tandem mass spectrometry detection. The method was utilized to determine the individual concentrations of 25-hydroxyvitamin D3 and 25-hydroxyvitamin D2 in serum and the total was determined as a sum of the concentrations. At 24 h post final dose, serum collected from animals was analyzed for changes in levels of 25-hydroxyvitamin D3, 25-hydroxyvitamin D2 and their metabolites.

male Sprague-Dawley rats [3] = test: Gross necropsy after 5-day i.v. dosing (Example 1); type: in vivo, rat; conditions: i.v. once a day for 5 days
Method: (§2) To examine the reduction of toxicity associated with the co-administration of 25-hydroxyvitamin D3 with 25-hydroxyvitamin D2 compared to 25-hydroxyvitamin D3 alone, 90 male Sprague-Dawley rats are treated intravenously for five consecutive days with various combinations of 25-hydroxyvitamin D3 and 25-hydroxyvitamin D2. One day prior to the initiation of the study, rats are randomly selected, assigned to groups and treated as follows in Table 3:
(§3) For each day's treatment of each animal, the appropriate material was administered i.v. Daily treatments were performed within a 3 hours window on each day. On the first day of treatment (pre-dose) and at 24 hours time points on day 2 before the second dose administration (0 being the time of the first injection), blood (˜1 mL) was collected from the jugular vein catheter from animals in Group 1 to 15 into unpreserved tubes. The serum was separated out, transferred into new tubes that were immediately frozen at approximately −80° C. Prior to the sacrifice of all animals at 120 hours on Day 6 blood (˜2 mL) was collected into unpreserved tubes from the jugular vein catheter from all animals. […] For each animal, the necropsy consisted of an external examination, including reference to all clinically recorded lesions, as well as internal “abbreviated” examinations.

male Sprague-Dawley rats [4] = test: Serum calcium levels at day 5 (Example 2, FIG. 6); type: in vivo, rat; conditions: i.v. once a day for 5 days
Method: Another study was carried out to assess the effects of co-administration of 25-hydroxyvitamin D with 25-hydroxyvitamin D2 compared to 25-hydroxyvitamin D3 alone on 102 male Sprague-Dawley rats. Rats about […], about 175-250 g in weight, were divided into groups of six males each. The groups were administered various combinations of 25-hydroxyvitamin D3 and 25-hydroxyvitamin D2 intravenously (or the same volume of control vehicle) once daily via the jugular vein catheter, for five consecutive days, according to Table 5 below.
Dosing was carried out at similar times each day, within a three hour window of the time of last dose. Blood was collected at day 0 (the first day of treatment) for analysis, and animals were monitored twice daily. Animals from all groups were euthanized on day 5, 24 hours after the last dose, and blood was collected by cardiac puncture. All rats were subjected to an abbreviated necropsy.

male Sprague-Dawley rats [5] = test: Serum calcium levels after 5-day i.v. dosing (Example 1, FIG. 2); type: in vivo, rat; conditions: Group 11: 6 μg/kg 25-hydroxyvitamin D3 alone, 5 day treatment period
Method: as §2, §3

[6] = Total serum 25-hydroxyvitamin D by LC-MS/MS (Example 1, FIG. 1); type: in vivo, rat; conditions: indicated dosing, daily for a period of 5 days; 120 hours post initial dose
Method: as §2, §1

[7] = Serum 25-hydroxyvitamin D in end-stage renal disease patients on hemodialysis (Example 4); type: in vivo, human; conditions: i.v. thrice weekly, 20 mcg 25-hydroxyvitamin D3 alone or with 10 mcg 25-hydroxyvitamin D2; first 3 months of dosing, steady state thereafter
Method: (§4) The formulations examined in this study are aqueous isotonic and sterile solutions containing either 20 mcg of 25-hydroxyvitamin D3 alone (test preparation #1) or in combination with 10 mcg 25-hydroxyvitamin D2 (test preparation #2). A total of 75 […] Caucasian, Asian, Hispanic and African-American subjects participate in this study, all of whom are at least 4-months on regular hemodialysis and have serum 25-hydroxyvitamin D levels below 15 ng/mL. Prior to enrolling, all subjects provide two fasting morning blood samples, separated by at least one week, to establish pre-treatment baseline values of serum calcium, plasma intact PTH, and serum 25-hydroxyvitamin D. On the morning of Day 1, the subjects are randomly assigned to one of three treatment groups, and they begin thrice weekly dosing with the test preparation #1 or #2, or with a matching placebo. All dosing occurs during regularly scheduled hemodialysis sessions and is accomplished by gradual injection (over a period of 1 to 5 minutes) into the blood exiting from the hemodialysis machine. […] At the conclusion of the study, the laboratory data are analyzed by treatment group and by test formulation after appropriate correction for baseline values. […]

[8] = tested on: patients with end-stage renal disease (ESRD); test: Serum calcium in end-stage renal disease patients on hemodialysis (Example 4); type: in vivo, human; conditions: i.v. thrice weekly
Method: as §4

SMILES	episodes of hypercalcemia (serum calcium above 10.2 mg/dL) [1]	metabolism / catabolism of the prohormone ([2]; rat, in vivo)	Gross Necropsy Findings (male Sprague-Dawley rats [3]; Group 6: 25-hydroxyvitamin D2 0 μg/kg, 25-hydroxyvitamin D3 0.3 μg/kg)	Gross Necropsy Findings (male Sprague-Dawley rats [3]; Group 11: 25-hydroxyvitamin D2 0 μg/kg, 25-hydroxyvitamin D3 6 μg/kg)	Serum calcium levels at day 5 (male Sprague-Dawley rats [4]; 4 μg/kg 25-hydroxyvitamin D3 alone)	Serum calcium levels at day 5 (male Sprague-Dawley rats [4]; 8 μg/kg 25-hydroxyvitamin D3 alone)	serum calcium levels (male Sprague-Dawley rats [5])	total serum 25-hydroxyvitamin D [6]	serum 25-hydroxyvitamin D levels [7]	metabolism / catabolism of the prohormone ([2]; observation in rats, serum 24 h post final dose)	mean serum calcium ([8]; 20 mcg 25-hydroxyvitamin D3 alone or with 10 mcg 25-hydroxyvitamin D2, 3-month study)	episodes of hypercalcemia (serum calcium above 10.2 mg/dL) ([8]; 20 mcg 25-hydroxyvitamin D3 alone, 3-month study)
C=C1CC[C@H](O)C/C1=C/C=C1\CCC[C@]2(C)[C@@H]([C@H](C)/C=C/[C@H](C)C(C)(C)O)CC[C@@H]12 [25-hydroxyvitamin D2]	more frequently observed in the placebo group than in the treatment group	catabolized more readily to 24, 25-dihydroxyvitamin D2										
C=C1CC[C@H](O)C/C1=C/C=C1\CCC[C@]2(C)[C@@H]([C@H](C)CCCC(C)(C)O)CC[C@@H]12 [25-hydroxyvitamin D3]			None	Severe signs of toxicity (blood in the lungs) and 4 of 6 animals treated exhibiting blood in lung tissue and 4/6 animals had	hypercalcemia	hypercalcemia	highest achieved level of serum calcium; also recorded: hypercalcemia	elevation	progressively increasing	catabolized more readily to the active 1,25-dihydroxyvitamin D3 form	increase significantly from baseline	more frequently observed
